Results from patent US20230293526A1, “METHOD FOR TREATING CANCER WITH A REVERSE TRANSCRIPTASE INHIBITOR” (PrimeFour Therapeutics, Inc., priority 2020, published 2023).

Test system: cancer cell lines
Assay: Cancer cell proliferation activity of representative nucleosides, CellTiterGlo 72 h (Example 7, Tables 8 and 9)
Type: cell-based
Conditions: 72 h
Protocol: Dose response relationships on cell proliferation was assessed for representative nucleosides on cancer cell lines. Briefly, compound treatment of cells started one day after seeding with a final DMSO concentration of 0.1%, and was performed by nanodrop-dispensing using a Tecan Dispenser. 0.1% DMSO (solvent) and Staurosporine (10 μM) served as high control (100% viability) and low control (0% viability), respectively. Cells were cultured in the appropriate media. For the assays, cells were seeded in white cell culture-treated flat and clear bottom multiwell plates and incubated at 37° C. overnight before compound was added. After incubation for 72 h at 37° C. at 5% or 10% CO2 dependent on the medium, cell plates were equilibrated to room temperature for one hour, CellTiterGlo reagent (Promega) was added and luminescence was measured approximately an hour later using a luminometer.
Raw data were converted into percent cell viability relative to the high and low control, which were set to 100% and 0%, respectively.

IC50 (72 h, 5637, bladder): 0.18 µM
IC50 (CLS439, bladder): 2.65 µM
IC50 (HS729, muscle): 0.37 µM
IC50 (J82, bladder): 0.64 µM
IC50 (JAR, placenta): 5.24 µM
IC50 (MT3, breast): 0.05 µM
IC50 (PC3, prostate): 0.15 µM
IC50 (RD, muscle): 0.79 µM
IC50 (T24, bladder): 0.08 µM
IC50 (Homo sapiens, 22Rv1, 72 h, 22RV1, prostate): 1.35 µM
IC50 (Homo sapiens, 786-0, 72 h, 786O, kidney): 0.38 µM
IC50 (Homo sapiens, A204, 72 h, A204, muscle): 0.02 µM
IC50 (Homo sapiens, A549, 72 h, A549, lung): 0.32 µM
IC50 (Homo sapiens, A673, 72 h, A673, bone): 0.5 µM
IC50 (Homo sapiens, A2780, 72 h, A2780, ovary): 0.25 µM
IC50 (Homo sapiens, A-375, 72 h, A375, skin): 0.33 µM
IC50 (Homo sapiens, A-431, 72 h, A431, skin): 0.28 µM
IC50 (Homo sapiens, ACHN, kidney): 0.34 µM
IC50 (Homo sapiens, ASPC1, 72 h, ASPC1, pancreas): 0.13 µM
IC50 (Homo sapiens, BT-20, 72 h, BT20, breast): 0.67 µM
IC50 (Homo sapiens, BXPC-3, 72 h, BXPC3, pancreas): 0.13 µM
IC50 (Homo sapiens, C-33-A, C33A, endometrial): 0.19 µM
IC50 (Homo sapiens, CAKI-1, 72 h, CAKI1, kidney): 0.07 µM
IC50 (Homo sapiens, COLO 205, 72 h, COLO205, colon): 0.16 µM
IC50 (Homo sapiens, COLO-678, 72 h, COLO678, colon): 1.71 µM
IC50 (Homo sapiens, Ca-Ski, CASKI, endometrial): 1.28 µM
IC50 (Homo sapiens, Caco-2, 72 h, CACO2, colon): 2.96 µM
IC50 (Homo sapiens, Calu-6, 72 h, CALU6, lung): 0.5 µM
IC50 (Homo sapiens, DLD-1, 72 h, DLD1, colon): 0.58 µM
IC50 (Homo sapiens, DU-145, 72 h, DU145, prostate): 0.28 µM
IC50 (Homo sapiens, EFO-21, 72 h, EFO21, ovary): 0.45 µM
IC50 (Homo sapiens, EJ-28, 72 h, EJ28, bladder): 1.02 µM
IC50 (Homo sapiens, Granta-519, 72 h, GRANTA-519, hematological): 0.08 µM
IC50 (Homo sapiens, HCT-15, 72 h, HCT15, colon): 0.54 µM
IC50 (Homo sapiens, HCT-116, 72 h, HCT116, colon): 0.31 µM
IC50 (Homo sapiens, HEK293, 72 h, HEK293, kidney): 10.9 µM
IC50 (Homo sapiens, HL-60, 72 h, HL-60, hematological): 0.36 µM
IC50 (Homo sapiens, HT-29, 72 h, HT29, colon): 0.41 µM
IC50 (Homo sapiens, HT-1080, 72 h, HT1080, connective tissue): 0.27 µM
IC50 (Homo sapiens, HeLa, endometrial): 0.33 µM
IC50 (Homo sapiens, HepG2, 72 h, HEPG2, liver): 1.3 µM
IC50 (Homo sapiens, Hs-578T, HS578T, breast): 0.92 µM
IC50 (Homo sapiens, IGROV-1, 72 h, IGROV1, ovary): 0.52 µM
IC50 (Homo sapiens, IMR-90, 72 h, IMR90, lung): 2.12 µM
IC50 (Homo sapiens, JEG-3, 72 h, JEG3, placenta): 1.25 µM
IC50 (Homo sapiens, JIMT-1, 72 h, JIMT1, breast): 0.08 µM
IC50 (Homo sapiens, K562, 72 h, K-562, hematological): 1.44 µM
IC50 (Homo sapiens, Kasumi 1, 72 h, KASUMI-1, hematological): 0.08 µM
IC50 (Homo sapiens, L-363, 72 h, L-363, hematological): > 50 µM
IC50 (Homo sapiens, LoVo, colon): 0.34 µM
IC50 (Homo sapiens, MCF7, 72 h, MCF7, breast): 1.96 µM
IC50 (Homo sapiens, MDA-MB-231, 72 h, MDAMB231, breast): 0.05 µM
IC50 (Homo sapiens, MDA-MB-435, 72 h, MDAMB435, skin): 0.82 µM
IC50 (Homo sapiens, MDA-MB-436, 72 h, MDAMB436, breast): 0.31 µM
IC50 (Homo sapiens, MDA-MB-468, 72 h, MDAMB468, breast): 0.29 µM
IC50 (Homo sapiens, MG-63, 72 h, MG63, bone): 0.38 µM
IC50 (Homo sapiens, MHH-ES-1, 72 h, MHHES1, bone): 0.72 µM
IC50 (Homo sapiens, MIA PaCa-2, 72 h, MIAPACA2, pancreas): 0.54 µM
IC50 (Homo sapiens, MINO, hematological): 0.08 µM
IC50 (Homo sapiens, MV4-11, 72 h, MV4-11, hematological): 0.57 µM
IC50 (Homo sapiens, NCI-H23, 72 h, NCI-H23, lung): 0.33 µM
IC50 (Homo sapiens, NCI-H82, 72 h, NCIH82, lung): 2.53 µM
IC50 (Homo sapiens, NCI-H292, 72 h, NCIH292, lung): 0.28 µM
IC50 (Homo sapiens, NCI-H460, 72 h, NCIH460, ung): 0.42 µM
IC50 (Homo sapiens, OVCAR-3, 72 h, OVCAR3, ovary): 0.38 µM
IC50 (Homo sapiens, OVCAR-4, 72 h, OVCAR4, ovary): 1.05 µM
IC50 (Homo sapiens, PANC-1, 72 h, PANC1, pancreas): 1.15 µM
IC50 (Homo sapiens, PLC-PRF-5, 72 h, PLCPRF5, liver): 2.16 µM
IC50 (Homo sapiens, Panc1005, 72 h, PANC1005, pancreas): 0.43 µM
IC50 (Homo sapiens, Ramos, hematological): 0.11 µM
IC50 (Homo sapiens, SAOS-2, 72 h, SAOS2, bone): 0.08 µM
IC50 (Homo sapiens, SF-268, 72 h, SF268, brain): 0.15 µM
IC50 (Homo sapiens, SF-295, 72 h, SF295, brain): 0.73 µM
IC50 (Homo sapiens, SK-BR-3, 72 h, SKBR3, breast): 0.19 µM
IC50 (Homo sapiens, SK-HEP1, 72 h, SKHEP1, liver): 0.12 µM
IC50 (Homo sapiens, SK-LMS-1, 72 h, SKLMS1, uterus): 1.35 µM
IC50 (Homo sapiens, SK-MEL-5, 72 h, SKMEL5, skin): 3.65 µM
IC50 (Homo sapiens, SK-MEL-28, 72 h, SKMEL28, skin): 1.18 µM
IC50 (Homo sapiens, SK-N-AS, SKNAS, brain): 1.41 µM
IC50 (Homo sapiens, SK-N-SH, SKNSH, brain): > 50 µM
IC50 (Homo sapiens, SK-OV-3, 72 h, SKOV3, ovary): 0.28 µM
IC50 (Homo sapiens, SNB-75, 72 h, SNB75, brain): 0.83 µM
IC50 (Homo sapiens, SU-DHL10, 72 h, SU-DHL-10, hematological): 0.36 µM
IC50 (Homo sapiens, SU-DHL-6, 72 h, SU-DHL-6, hematological): 0.33 µM
IC50 (Homo sapiens, SW-620, 72 h, SW620, colon): 0.65 µM
IC50 (Homo sapiens, TE-671, 72 h, TE671, muscle): 0.44 µM
IC50 (Homo sapiens, THP-1, 72 h, THP-1, hematological): 1.23 µM
IC50 (Homo sapiens, U2OS, bone): 0.67 µM
IC50 (Homo sapiens, U-87 MG, U87MG, brain): 0.33 µM
IC50 (Homo sapiens, UMUC3, 72 h, UMUC3, bladder): 0.56 µM
IC50 (Homo sapiens, UO-31, 72 h, UO31, kidney): 0.15 µM
IC50 (Homo sapiens, WSU-NHL, hematological): 0.21 µM
IC50 (NCI-H358M, NCIH358M, lung): 0.05 µM
IC50 (PBMC, hematological): 1.03 µM
IC50 (RD-ES, RDES, bone): 2.2 µM
Structure (SMILES): C[C@]1(CO)O[C@@H](n2ccc(N)nc2=O)C[C@@H]1O [compound 30]
